In this experiment the target is T1, Slp-4 C2A domain (synaptotagmin-like protein 4/granuphilin) (Homo sapiens, UniProt Q96C24).
T1 construct: gene SYTL4; C2A domain G352-S494; N-terminal GST cleaved by thrombin; E. coli BL21(DE3); cation-exchange purified, unmodified main peak
T1 sequence (Q96C24 352-494): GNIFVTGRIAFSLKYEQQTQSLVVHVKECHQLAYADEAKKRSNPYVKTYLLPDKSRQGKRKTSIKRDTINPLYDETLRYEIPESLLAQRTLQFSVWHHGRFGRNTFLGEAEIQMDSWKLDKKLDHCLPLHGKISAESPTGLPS
Kind of experiment: Trp-to-dansyl FRET, competitive displacement of protein from dansyl-PE liposomes. The conditions noted are these: read-out: IC50 for IP6 (μM) ^a. It counts as binding.

As usually defined, the IC50 is the concentration needed to halve the response being measured.

Regarding `O=P(O)(O)O[C@H]1[C@H](OP(=O)(O)O)[C@@H](OP(=O)(O)O)[C@H](OP(=O)(O)O)[C@@H](OP(=O)(O)O)[C@H]1OP(=O)(O)O` [IP6, D-myo-inositol-(1,2,3,4,5,6)-hexakisphosphate], the IC50 was 620 ± 80 µM.

These data come from publication PMC7857503, “Multivalent lipid targeting by the calcium-independent C2A domain of synaptotagmin-like protein 4/granuphilin” (The Journal of Biological Chemistry, 2020).
